Laboratory results: PubChem BioAssay AID180 (DTP/NCI, 2004)
Several values for one entry are separate records, joined by “and”; a condition that tells them apart may be missing. Identical values can stand only once.

Test system: BDF1 mice, Adenocarcinoma 755 s.c., tumor weight T/C
Test: NCI In Vivo Anticancer Drug Screen. Data for tumor model Adenocarcinoma 755 (subcutaneous) in B6D2F1 (BDF1) mice
Conditions: endpoint: mean tumor weight, schedule: Q01DX011 (ip), higher = larger tumour
Method in brief: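 Readout: T/C, i.e. treated-group measurement over vehicle-control measurement. Endpoint is survival or tumor size in tumor-bearing mice given compound.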

## CC(C)CCn1cnc2c(SCC(=O)O)nc(N)nc21
dose: 20.0 mg/kg/injection, vehicle: methylcellulose (MC)
  T/C: 46 % of control
dose: 65.0 mg/kg/injection, vehicle: methylcellulose (MC)
  T/C: 56 % of control
dose: 200.0 mg/kg/injection, vehicle: methylcellulose (MC)
  T/C: 55 % of control

## O=c1cn[nH]c(=O)[nH]1
dose: 110.1 mg/kg/injection, vehicle: carboxymethylcellulose (CMC)
  T/C: 104 % of control
dose: 125.0 mg/kg/injection, vehicle: carboxymethylcellulose (CMC)
  T/C: 66 % of control
dose: 220.2 mg/kg/injection, vehicle: carboxymethylcellulose (CMC)
  T/C: 80 % of control
dose: 250.0 mg/kg/injection, vehicle: carboxymethylcellulose (CMC)
  T/C: 107 % of control
dose: 440.4 mg/kg/injection, vehicle: carboxymethylcellulose (CMC)
  T/C: 84 % of control
dose: 500.0 mg/kg/injection, vehicle: carboxymethylcellulose (CMC)
  T/C: 87 % of control
dose: 880.8 mg/kg/injection, vehicle: carboxymethylcellulose (CMC)
  T/C: 77 % of control
dose: 1000.0 mg/kg/injection, vehicle: carboxymethylcellulose (CMC)
  T/C: 80 % of control

## CCOCCNc1ncnc2c1cnn2C
dose: 12.5 mg/kg/injection, vehicle: methylcellulose (MC)
  T/C: 112 % of control
dose: 25.0 mg/kg/injection, vehicle: methylcellulose (MC)
  T/C: 65 % of control
dose: 50.0 mg/kg/injection, vehicle: methylcellulose (MC)
  T/C: 38 % of control
dose: 100.0 mg/kg/injection, vehicle: methylcellulose (MC)
  T/C: 17 % of control

## CCOC(=O)c1ccc(N=NN(C)C)cc1
dose: 8.0 mg/kg/injection, vehicle: carboxymethylcellulose (CMC)
  T/C: 92 % of control
dose: 16.0 mg/kg/injection, vehicle: carboxymethylcellulose (CMC)
  T/C: 94 % of control
dose: 31.0 mg/kg/injection, vehicle: carboxymethylcellulose (CMC)
  T/C: 113 % of control
dose: 62.0 mg/kg/injection, vehicle: carboxymethylcellulose (CMC)
  T/C: 95 % of control

## Nc1nc(N)c2cnnn2n1
dose: 25.0 mg/kg/injection, vehicle: saline
  T/C: 83 % of control
dose: 75.0 mg/kg/injection, vehicle: saline
  T/C: 116 % of control

## COc1ccc(CSc2ncnc3nc[nH]c23)cc1
dose: 1.5 mg/kg/injection, vehicle: carboxymethylcellulose (CMC)
  T/C: 89 % of control
dose: 3.0 mg/kg/injection, vehicle: carboxymethylcellulose (CMC)
  T/C: 88 % of control
dose: 6.0 mg/kg/injection, vehicle: carboxymethylcellulose (CMC)
  T/C: 65 % of control
dose: 7.8 mg/kg/injection, vehicle: methylcellulose (MC)
  T/C: 58 % of control
dose: 15.6 mg/kg/injection, vehicle: methylcellulose (MC)
  T/C: 13 % of control
dose: 31.2 mg/kg/injection, vehicle: methylcellulose (MC)
  T/C: 10 % of control

## Nc1nc2ncc(CNc3ccc(C(=O)NC(CCC(=O)O)C(=O)O)cc3)nc2c(=O)[nH]1 (stereo not drawn)
dose: 6.95 mg/kg/injection, vehicle: carboxymethylcellulose (CMC)
  T/C: 78 % of control
dose: 13.9 mg/kg/injection, vehicle: carboxymethylcellulose (CMC)
  T/C: 77 % of control
dose: 17.38 mg/kg/injection, vehicle: carboxymethylcellulose (CMC)
  T/C: 221 % of control and 79 % of control
dose: 22.24 mg/kg/injection, vehicle: carboxymethylcellulose (CMC)
  T/C: 63 % of control
dose: 27.8 mg/kg/injection, vehicle: carboxymethylcellulose (CMC)
  T/C: 52 % of control and 60 % of control and 75 % of control
dose: 34.75 mg/kg/injection, vehicle: carboxymethylcellulose (CMC)
  T/C: 65 % of control
dose: 40.0 mg/kg/injection, vehicle: carboxymethylcellulose (CMC)
  T/C: 70 % of control
dose: 50.0 mg/kg/injection, vehicle: carboxymethylcellulose (CMC)
  T/C: 50 % of control
dose: 55.6 mg/kg/injection, vehicle: carboxymethylcellulose (CMC)
  T/C: 33 % of control and 55 % of control
dose: 60.0 mg/kg/injection, vehicle: carboxymethylcellulose (CMC)
  T/C: 27 % of control
dose: 65.0 mg/kg/injection, vehicle: carboxymethylcellulose (CMC)
  T/C: 68 % of control
